The values that follow come from patent US9981989B2, “Ataxia telengiectasia and Rad3-related (ATR) protein kinase inhibitors” (Atrin Pharmaceuticals LLC, priority 2014, dated 2018).

Where only a bound is given, the exact number is not on record here.

The subject of one assay is Jurkat cells. The assay can be described thus: Phenotypical evaluation of ATR inhibition: S-phase arrest of Jurkat cells under aphidicolin replication stress, flow cytometry. The assay is classed as cell-based, human. The settings on record: 0.2 μM aphidicolin, 24 hours. How it is done: It is known that inhibition of ATR in cells under replicative stress stalls DNA replication, which prevents cells from progressing through S-phase, leading to an accumulation of cells in this cell cycle phase (Kevin D. Smith, et al., Tim-Tipin dysfunction creates an indispensable reliance on the ATR-Chk1 pathway for continued DNA synthesis, J. Cell Biol. 2009, 187, 15-23). In the present experiment Jurkat cells were treated with 0.2 μM aphidicolin to induce replication stress in the presence of test compounds, at concentrations ranging from 10 μM to 0.1 μM, for 24 hours. Cells were fixed and cell-cycle profiles examined by flow cytometry as in Smith, J. Cell Bio. 2009. Test compounds were considered active if stalling of the cells in S-phase was observed.
A general note: In flow cytometry, cells or beads pass a laser one at a time.

For a further assay, the target named is T1, ATR (Homo sapiens, UniProt Q13535).
T1 construct: endogenous in cells; host or cells: HCT119 WT BCL/XL-GFP cells
T1 sequence (Q13535 whole entry): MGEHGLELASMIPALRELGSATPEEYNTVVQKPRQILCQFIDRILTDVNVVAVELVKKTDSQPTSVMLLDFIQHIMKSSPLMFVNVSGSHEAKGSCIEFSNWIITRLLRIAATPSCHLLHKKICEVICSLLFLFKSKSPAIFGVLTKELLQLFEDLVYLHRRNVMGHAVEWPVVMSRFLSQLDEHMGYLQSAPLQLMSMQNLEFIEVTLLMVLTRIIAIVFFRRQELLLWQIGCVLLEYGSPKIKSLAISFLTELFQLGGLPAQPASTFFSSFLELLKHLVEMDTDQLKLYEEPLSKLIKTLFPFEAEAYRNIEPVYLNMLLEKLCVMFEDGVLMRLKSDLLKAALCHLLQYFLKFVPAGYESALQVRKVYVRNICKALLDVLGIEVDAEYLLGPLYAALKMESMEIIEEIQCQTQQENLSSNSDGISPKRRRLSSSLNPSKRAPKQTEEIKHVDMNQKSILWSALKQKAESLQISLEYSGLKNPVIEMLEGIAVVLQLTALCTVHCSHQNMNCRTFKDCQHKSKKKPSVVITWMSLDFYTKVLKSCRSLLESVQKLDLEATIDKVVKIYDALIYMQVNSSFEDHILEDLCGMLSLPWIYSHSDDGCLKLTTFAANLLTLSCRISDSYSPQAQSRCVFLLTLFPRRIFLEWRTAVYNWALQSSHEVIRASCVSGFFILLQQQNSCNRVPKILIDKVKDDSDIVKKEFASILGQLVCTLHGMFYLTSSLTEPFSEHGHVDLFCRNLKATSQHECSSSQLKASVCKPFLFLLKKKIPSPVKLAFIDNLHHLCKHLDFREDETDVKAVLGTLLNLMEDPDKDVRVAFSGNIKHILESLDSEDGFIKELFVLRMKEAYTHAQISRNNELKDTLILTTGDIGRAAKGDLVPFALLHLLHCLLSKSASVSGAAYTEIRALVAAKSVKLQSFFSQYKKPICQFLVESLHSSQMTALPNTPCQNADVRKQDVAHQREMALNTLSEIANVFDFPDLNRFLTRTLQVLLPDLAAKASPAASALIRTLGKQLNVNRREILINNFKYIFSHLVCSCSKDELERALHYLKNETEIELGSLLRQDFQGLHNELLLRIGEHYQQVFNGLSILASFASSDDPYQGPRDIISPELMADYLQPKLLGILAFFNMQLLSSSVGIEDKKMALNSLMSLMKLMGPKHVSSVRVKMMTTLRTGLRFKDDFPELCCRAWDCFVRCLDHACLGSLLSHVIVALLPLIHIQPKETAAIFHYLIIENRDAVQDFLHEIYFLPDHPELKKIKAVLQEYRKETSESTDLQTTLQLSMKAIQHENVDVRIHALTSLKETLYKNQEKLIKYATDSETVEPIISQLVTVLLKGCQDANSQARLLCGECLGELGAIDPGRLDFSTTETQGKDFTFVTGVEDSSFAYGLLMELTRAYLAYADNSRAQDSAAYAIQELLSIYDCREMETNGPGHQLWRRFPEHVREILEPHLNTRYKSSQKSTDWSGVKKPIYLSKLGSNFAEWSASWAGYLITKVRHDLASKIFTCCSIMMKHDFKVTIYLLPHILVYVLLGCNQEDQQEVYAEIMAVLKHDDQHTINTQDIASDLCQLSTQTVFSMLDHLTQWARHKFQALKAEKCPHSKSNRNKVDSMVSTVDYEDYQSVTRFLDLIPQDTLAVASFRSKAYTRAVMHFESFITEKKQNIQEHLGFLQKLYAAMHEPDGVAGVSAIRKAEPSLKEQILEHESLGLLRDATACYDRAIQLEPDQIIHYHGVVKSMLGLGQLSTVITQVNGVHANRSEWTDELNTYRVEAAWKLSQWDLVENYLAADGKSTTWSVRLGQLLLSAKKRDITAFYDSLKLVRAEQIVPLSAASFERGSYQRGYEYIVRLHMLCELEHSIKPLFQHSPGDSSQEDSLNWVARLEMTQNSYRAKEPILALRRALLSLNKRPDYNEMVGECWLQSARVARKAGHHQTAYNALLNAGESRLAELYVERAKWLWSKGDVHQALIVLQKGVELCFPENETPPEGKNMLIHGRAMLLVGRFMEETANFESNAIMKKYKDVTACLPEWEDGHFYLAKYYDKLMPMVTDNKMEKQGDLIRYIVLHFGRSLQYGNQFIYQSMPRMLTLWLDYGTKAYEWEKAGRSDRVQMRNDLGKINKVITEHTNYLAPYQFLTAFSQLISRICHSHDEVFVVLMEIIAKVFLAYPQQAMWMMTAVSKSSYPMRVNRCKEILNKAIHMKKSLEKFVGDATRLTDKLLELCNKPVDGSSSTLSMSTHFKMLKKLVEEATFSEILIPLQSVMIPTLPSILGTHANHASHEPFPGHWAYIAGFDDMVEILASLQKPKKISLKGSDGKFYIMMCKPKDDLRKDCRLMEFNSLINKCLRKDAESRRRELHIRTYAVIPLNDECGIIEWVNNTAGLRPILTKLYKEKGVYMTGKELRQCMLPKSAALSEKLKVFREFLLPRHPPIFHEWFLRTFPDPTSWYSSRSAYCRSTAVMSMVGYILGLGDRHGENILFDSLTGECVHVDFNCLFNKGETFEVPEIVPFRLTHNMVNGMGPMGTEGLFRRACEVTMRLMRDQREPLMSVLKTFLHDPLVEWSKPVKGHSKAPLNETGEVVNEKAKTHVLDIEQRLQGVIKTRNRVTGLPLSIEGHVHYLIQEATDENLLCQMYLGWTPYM
T1 sequence (Q8WXE1 whole entry partner): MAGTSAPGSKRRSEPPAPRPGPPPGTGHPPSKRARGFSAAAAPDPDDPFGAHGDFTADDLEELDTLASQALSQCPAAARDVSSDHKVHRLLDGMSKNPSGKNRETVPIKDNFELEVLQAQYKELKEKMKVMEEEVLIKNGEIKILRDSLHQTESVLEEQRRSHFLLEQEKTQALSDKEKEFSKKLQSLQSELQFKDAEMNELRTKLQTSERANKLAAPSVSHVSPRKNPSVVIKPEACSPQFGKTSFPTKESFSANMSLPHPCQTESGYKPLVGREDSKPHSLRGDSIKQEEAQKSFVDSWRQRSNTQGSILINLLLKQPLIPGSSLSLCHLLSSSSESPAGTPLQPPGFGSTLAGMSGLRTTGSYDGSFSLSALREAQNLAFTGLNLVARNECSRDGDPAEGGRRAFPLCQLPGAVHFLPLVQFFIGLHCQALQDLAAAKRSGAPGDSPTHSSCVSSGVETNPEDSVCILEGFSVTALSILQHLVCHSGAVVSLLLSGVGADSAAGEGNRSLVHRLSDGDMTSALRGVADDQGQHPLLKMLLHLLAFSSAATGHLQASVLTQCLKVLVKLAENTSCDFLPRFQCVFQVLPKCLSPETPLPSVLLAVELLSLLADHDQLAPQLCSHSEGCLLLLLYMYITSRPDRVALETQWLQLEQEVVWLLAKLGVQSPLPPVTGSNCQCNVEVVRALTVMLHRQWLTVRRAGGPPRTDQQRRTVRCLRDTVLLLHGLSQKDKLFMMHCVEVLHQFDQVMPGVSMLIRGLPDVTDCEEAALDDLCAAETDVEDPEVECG
The assay can be described thus: ATR cellular kinase activity: Chk1 and H2AX phosphorylation in HCT119 WT BCL/XL-GFP cells with aphidicolin, western blot. The settings on record: 5 μM aphidicolin, 4 hours. The assay is classed as cell-based. An excerpt: (§1) Chk1 phosphorylation, ATR's primary downstream target, is used as a read-out for ATR activity (Liu Q. et al., Chk1 is an essential kinase that is regulated by Atr and required for the G(2)/M DNA damage checkpoint, Genes Dev. 2000, Jun. 15, 14(12), 1448-1459; and (Jia Li and David F. Stern, Regulation of CHK2 by DNA-dependent Protein Kinase, J Biol. Chem. 2005, 280, 12041-12050). Chk2 phosphorylation (stimulated by 5 Gy irradiation), is a marker of ATM and DNA-PKcs activity, which together with ATR are closely related DNA-damage responsive PIKK family kinases (Shuhei Matsuoka et al., Ataxia telangiectasia-mutated phosphorylates Chk2 in vivo and in vitro, Proceedings of the National Academy of Sciences of the USA, 2000, 97(19), 10389-10394; Li J and Stern D F, Regulation of CHK2 by DNA-dependent protein kinase. The Journal of biological chemistry, 2005, 280, 12041-12050).
HCT119 WT BCL/XL-GFP cells were incubated with decreasing concentrations of test compounds (10-0.003 μM) and 5 μM aphidicolin for 4 hours prior to lysis. Cell lysis and western blotting were performed as in Gilad, Cancer Res, 2010, using the following antibodies as per manufacturers' instructions: pCHK1 (Ser345) (Cell signaling 133D3), pH2AX (S139) (Millipore 05636), GAPDH (loading control, Chemicon MAB374), and MCM3 (loading control, Santa Cruz sc-9850). Test compounds were considered active if significant inhibition of Chk1 phosphorylation was observed.
A general note: In western blotting, separated proteins are transferred to a membrane and probed.

For a further assay, the system named is Chk2 phosphorylation. The assay can be described thus: ATR kinase selectivity: Chk2 phosphorylation in HCT119 WT BCL/XL-GFP cells after 5 Gy irradiation, western blot. The settings on record: 5-0.01 μM compound, stimulated by 5 Gy irradiation, pChk2 (T68) (FIG. 4C). The assay is classed as cell-based, human.
Source text: as §1
HCT119 WT BCL/XL-GFP cells were incubated with decreasing concentrations of test compounds (5-0.01 μM) alone for 30 minutes followed by 5 Gy irradiation and cell lysis 20 minutes post irradiation. Cell lysis and western blotting were performed as in Gilad, Cancer Res, 2010, using the following antibodies as per manufacturers' instructions: pChk2 (T68) (Cell Signaling 2661S), GAPDH (loading control, Chemicon MAB374), and MCM3 (loading control, Santa Cruz sc-9850).

[1] abbreviates: 1.25 μM compound, Jurkat cells (FIGS. 3A, 3B).

In the case of `CN1CCOCCOCCOc2ccccc2NC(=O)c2nc(cnc2N)-c2ccc(cc2)S1(=O)=O` [P(1)], the “inhibition of cell cycle progression by accumulation of cells in S-phase” value is “significant inhibition of cell cycle progression” in the assay on Jurkat cells (setting [1]); “significant inhibition of cell cycle progression” in the assay with Jurkat cells (2.5 μM compound, Jurkat cells (FIG. 2)); “significant inhibition of cell cycle progression” in the assay on Jurkat cells (10 μM compound, Jurkat cells (FIG. 1)).
Consider `CNS(=O)(=O)c1ccc(-c2cnc(N)c(C(=O)Nc3ccccc3OCCOCCOCCO)n2)cc1` [IM11, 3-amino-N-(2-(2-(2-(2-hydroxyethoxy)ethoxy)ethoxy)phenyl)-6-(4-(N-methylsulfamoyl)phenyl)pyrazine-2-carboxamide], for which the “inhibition of cell cycle progression by accumulation of cells in S-phase” value in the assay with Jurkat cells (setting [1]) is “inactive”.
With `CNCc1cccc2c1OCCOCCOCCN(C)S(=O)(=O)c1ccc(cc1)-c1cnc(N)c(n1)C(=O)N2` [P(4)], at ATR (pCHK1 (Ser345) (FIG. 4B)), the “concentration at which Chk1 phosphorylation is completely inhibited” value is on record as at least 1 μLM and the “lowest dose able to limit phosphorylation of Chk1” value is 30 nM. Besides, on ATR (pH2AX (S139) (FIG. 4B)), the “H2AX phosphorylation (DNA double strand breaks)” value is “increased H2AX phosphorylation”. Besides, the “levels of Chk2 phosphorylation” value with Chk2 phosphorylation was “did not affect”.
